These results are taken from article PMC12383815 (Biomolecules, 2025).

Structures can show the parent of a compound that is named as a salt.

A word on the inhibition: it is the relative decrease from the control value, in per cent. A high value points to a strong effect. The IC50 is the midpoint of a concentration-inhibition curve.

One test deals with T1, shikimate dehydrogenase (SaSDH) (Staphylococcus aureus, UniProt Q6GGA5).
T1 construct: gene aroE
T1 sequence (Q6GGA5 1-268): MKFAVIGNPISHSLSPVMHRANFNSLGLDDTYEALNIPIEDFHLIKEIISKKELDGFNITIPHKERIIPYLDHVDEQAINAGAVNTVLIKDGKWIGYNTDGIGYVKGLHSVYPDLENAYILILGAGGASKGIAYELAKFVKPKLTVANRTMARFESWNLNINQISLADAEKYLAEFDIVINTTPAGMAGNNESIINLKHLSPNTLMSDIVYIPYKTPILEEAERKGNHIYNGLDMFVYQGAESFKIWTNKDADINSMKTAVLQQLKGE
The experiment in a line: biochemical. More on the design: SaSDH enzyme activity inhibition screening at 500 uM, 10% DMSO.
Details: not given
Here is the method:
The inhibition percentage was determined by measuring enzyme activity under the conditions previously described by adding each compound from an in-house natural product derivative chemical library (40 compounds) to the reaction mixture at quantities of 500 μM; these compounds had been previously dissolved in Dimethyl Sulfoxide (DMSO), keeping 10% DMSO as final concentration. The percentage inhibition was calculated by adjusting the data from the following equation [33]: Inhibition %=A0−A1/A0 ×100 where the following definitions are used: In the search for new SaSDH inhibitors, an in-house chemical library of 40 natural product derivatives was screened against SaSDH activity. Our findings indicate that among the 40 molecules evaluated, the compounds phloridzin (93% of inhibition), rutin (87% of inhibition), and caffeic acid (70% of inhibition) inhibited SaSDH using a 500 µM concentration.
`Nc1nc(-c2ccc3c(c2)CCCC3)cs1` [2-Amino-4-(5,6,7,8-tetrahydronaphthalen-2-yl)thiazole]: the inhibition at 500 µM came to 8%.

As for `FC(F)(F)c1ccc(Br)cn1` [5-Bromo-2-(trifluoromethyl)pyridine], 500 µM produced 9% inhibition.

As to `NC(=O)c1cccnc1` [Nicotinamide], 500 µM produced 5% inhibition.

`COc1ccc(-c2coc3cc(O)ccc3c2=O)cc1` [Formononetin] came in with an inhibition at 500 µM of 13%.

`O=Cc1c[nH]c2c1ccc1ccccc12` [1H-Benzo[g]indole-3-carboxaldehyde] had an inhibition at 500 µM of 19%.

In turn, `COC(=O)c1ccc(OC)cc1O` [Methyl 4-methoxysalicylate] showed an inhibition at 500 µM of 10%.

The molecule `Brc1nc2ccccc2[nH]1` [2-Bromo-1H-benzimidazole] returned an inhibition at 500 µM of 10%.

For the molecule `Nc1ccc(Br)cn1` [2-Amino-5-bromopyridine], testing at 500 µM gave an inhibition of 8%.

`O=C1O[C@H]([C@@H](O)CO)C(O)=C1O` [L-Ascorbic acid]: testing at 500 µM gave an inhibition of 4.5%.

In turn, `Clc1ccnc(Cl)c1` [2,4-Dichloropyridine] came in with an inhibition at 500 µM of 19%.

In the case of `CC1=CC(=O)c2ccccc2C1=O` [Menadione], testing at 500 µM gave an inhibition of 17%.

On to `O=C1CNCCN1` [2-Oxopiperazine], for which testing at 500 µM gave an inhibition of 13%.

Consider `Cn1ccnc1S(=O)(=O)Cl` [1-Methylimidazole-2-sulfonyl chloride], for which the inhibition at 500 µM amounted to 13%.

Molecule `C1SCC2OC12` (centres unmarked) [3,4-Epoxy-tetrahydrothiophene] registered an inhibition at 500 µM of 9%.

For `O=c1[nH]cc(Br)cc1[N+](=O)[O-]` [5-Bromo-2-hydroxy-3-nitropyridine], 500 µM produced 18% inhibition.

Molecule `Fc1ccc(Cl)nc1` [2-Chloro-5-fluoropyridine] showed an inhibition at 500 µM of 18%.

The molecule `COc1cc(C(=O)OCCCCNC(=N)N)cc(OC)c1O` [Leonurine] had an inhibition at 500 µM of 13%.

As to `Cc1ncc(CO)c(CO)c1O` [Pyridoxine], testing at 500 µM gave an inhibition of 28%.

The molecule `N#Cc1cnc(N)s1` [2-Aminothiazole-5-carbonitrile] showed an inhibition at 500 µM of 17%.

`COc1cccc(C(=O)O)c1` [3-Methoxybenzoic acid]: at 500 µM the inhibition was 2%.

For `O=C(O)c1cccnc1` [Nicotinic acid], testing at 500 µM gave an inhibition of 20%.

On to `Cc1ncc(CO)c(C)c1O` [4-Deoxypyridoxine hydrochloride], for which the inhibition at 500 µM amounted to 12%.

`COC(=O)c1nc[nH]c1C(=O)OC` [Dimethyl imidazole-4,5-dicarboxylate] registered an inhibition at 500 µM of 18%.

Turning to `CC(C)=CCC1=C(O)C(=O)c2ccccc2C1=O` [Lapachol], the inhibition at 500 µM is 6%.

`OC[C@H]1O[C@@H](OCCc2ccc(O)cc2)[C@H](O)[C@@H](O)[C@@H]1O` [Salidroside] showed an inhibition at 500 µM of 27%.

Take `O=C(Cl)c1nc2ccccc2s1` [Benzothiazole-2-carbonyl chloride]: 500 µM produced 14% inhibition.

The target in a further test is T2, shikimate dehydrogenase (SaSDH) (Staphylococcus aureus, UniProt Q6GGA5).
T2 construct: gene aroE
The experiment in a line: recombinant enzyme activity, NADPH formation at […] nm, dose-response; progress-curve kinetics. It is filed as biochemical.
Details: not given
As for `O=C(CCc1ccc(O)cc1)c1c(O)cc(O)cc1O[C@@H]1O[C@H](CO)[C@@H](O)[C@H](O)[C@H]1O` [Phloridzin], the 50% inhibitory concentration (IC50) amounted to 140 µM.

Regarding `O=C(O)/C=C/c1ccc(O)c(O)c1` [Caffeic acid], the half-maximal inhibitory concentration (IC50) worked out at 240 µM.

Staying with this test, now noted: read-out: IC50.
For `C[C@@H]1O[C@@H](OC[C@H]2O[C@@H](Oc3c(-c4ccc(O)c(O)c4)oc4cc(O)cc(O)c4c3=O)[C@H](O)[C@@H](O)[C@@H]2O)[C@H](O)[C@H](O)[C@H]1O` [Rutin], the IC50 is 165 µM.
